The values that follow come from patent US20230081426A1, “COMPOUNDS AND METHODS FOR KRAS MODULATION AND INDICATIONS THEREFOR” (Plexxikon Inc., priority 2020, published 2023).

Broadly, the IC50 is the concentration that gives 50% inhibition.

For assay [1], the target named is T1, G12D-mutant human KRAS (amino acid residues 1-188) (Homo sapiens, UniProt P01116, G12D).
T1 construct: G12D or G12C-mutant human KRAS (amino acid residues 1-188) with FLAG tag; made in house; host or cells: E. coli
Nature of the assay: KRAS Binding Disruption Assay (AlphaScreen; biotinylated KRpep-2d analogue or RAF1-RBD), G12D. The settings on record: for IC50: geometric mean, read-out: KRAS GMean IC50 (uM) MUTATION: G12D. The method in brief:
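Displacement format with mutant KRAS, biotinylated KRpep-2d analogue or RAF1-RBD (5-20 nM each) at pH 7.5 with 5 mM MgCl2.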
(Bead proximity is the source of the signal in Alpha formats.)

In assay [2] the target is T2, G12C-mutant human KRAS (amino acid residues 1-188) (Homo sapiens, UniProt P01116, G12C).
T2 construct: G12D or G12C-mutant human KRAS (amino acid residues 1-188) with FLAG tag; made in house; host or cells: E. coli
T2 sequence (P01116 1-188 isoform P01116-2 G12C): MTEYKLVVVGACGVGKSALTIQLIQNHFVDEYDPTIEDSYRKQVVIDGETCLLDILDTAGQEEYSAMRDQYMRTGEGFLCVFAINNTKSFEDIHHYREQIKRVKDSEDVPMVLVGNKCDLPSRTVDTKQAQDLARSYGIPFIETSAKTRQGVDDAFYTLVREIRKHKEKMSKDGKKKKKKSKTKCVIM
In words: KRAS Binding Disruption Assay (AlphaScreen; biotinylated KRpep-2d analogue or RAF1-RBD), G12C. The settings on record: geometric mean, read-out: KRAS GMean IC50 (uM) MUTATION: G12C. How it is done: Compound binding disrupts the interaction of KRpep-2d or RAF1-RBD with KRAS, leading to a decrease in Alpha signal.
All assay components were prepared in 20 mM HEPES (pH 7.5), 100 mM NaCl, 5 mM MgCl2, 0.01% Tween-20, and 0.01% BSA. Biotinylated analogues of KRpep-2d were custom synthesized. The binding disruption assays were performed using 5-20 nM of mutant KRAS and 5-20 nM of either biotinylated KRpep-2d analogue or RAF1-RBD. 19 μL of KRAS protein and 4 μL of biotinylated KRpep-2d or RAF1-RBD were added to the wells of a 384-well plate containing 1 μL of various concentrations of test compound or DMSO vehicle. 16 wells containing KRAS, biotinylated KRpep-2d or RAF1-RBD, and 5% DMSO served as high controls. 16 wells containing KRAS only and 5% DMSO served as low controls. Binding reactions were incubated for 1 hour at 25° C., then Anti-Flag Acceptor and Streptavidin Donor Alpha beads were added at a final concentration of 10 μg/mL for an additional hour at room temperature. Alpha signal was read out on a Perkin Elmer Envision HTS instrument. The percentage inhibition at individual compound concentrations relative to high and low controls was calculated. The data were analyzed by using nonlinear regression to generate IC50 values.

Read-outs that look alike come from different tables or passages of the source.

T1 sequence (P01116 1-188 isoform P01116-2 G12D): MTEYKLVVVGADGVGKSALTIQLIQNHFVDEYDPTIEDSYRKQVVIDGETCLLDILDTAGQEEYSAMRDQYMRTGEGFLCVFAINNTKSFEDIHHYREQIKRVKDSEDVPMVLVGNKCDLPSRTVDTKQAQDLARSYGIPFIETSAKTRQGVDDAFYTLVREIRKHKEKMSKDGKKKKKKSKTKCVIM

`CN(C)CCOc1nc(N2C[C@H]3CC[C@@H](C2)N3)c2ccc(-c3cc(O)cc4ccccc34)cc2n1` [P-0023, 4-(4-((1R,5S)-3,8-diazabicyclo[3.2.1]octan-3-yl)-2-(2-(dimethylamino)ethoxy)quinazolin-7-yl)naphthalen-2-ol]: the half-maximal inhibitory concentration (IC50) in assay [1] (KRAS G12D) is 0.0001 to 10 µM; in assay [1] (Table 4, comparison with compounds of WO 2017/172979), 0.29 µM; in assay [2], 10 to 100 µM. In assay [1] (Table 4, fold more potent than the compared compound of WO 2017/172979), the “Improved KRAS G12D Biochemical Potency of Compounds with Bridged vs Non-Bridged R^1 Groups” value is “P-0023 is about 57 times more potent than Compound 149 in WO 2017/172979”.

Take `C=Cc1cc2c(N3C[C@H]4CC[C@@H](C3)N4)nc(OC[C@@H]3CCCN3C)nc2c(F)c1-c1cc(O)cc2ccccc12` [P-0036, 4-[4-(3,8-Diazabicyclo[3.2.1]octan-3-yl)-8-fluoro-2-[[(2S)-1-methylpyrrolidin-2-yl]methoxy]-6-vinyl-quinazolin-7-yl]naphthalen-2-ol]: the IC50 in assay [1] (KRAS G12D) and in assay [2] was 0.0001 to 10 µM each time.

As to `CN1CCC[C@H]1COc1nc(N2CC3CCCC(C2)N3)c2cc(Cl)c(-c3cc(O)cc4ccccc34)c(F)c2n1` [P-0039, 4-(4-(3,9-diazabicyclo[3.3.1]nonan-3-yl)-6-chloro-8-fluoro-2-(((S)-1-methylpyrrolidin-2-yl)methoxy)quinazolin-7-yl)naphthalen-2-ol], the IC50 in assay [1] (KRAS G12D) and in assay [2] was 0.0001 to 10 µM in each case.

Consider `CN(C)C(=O)CCNc1nc(N2C[C@H]3CC[C@@H](C2)N3)c2ccc(-c3cc(O)cc4ccccc34)cc2n1` [P-0058, 3-((4-((1R,5S)-3,8-diazabicyclo[3.2.1]octan-3-yl)-7-(3-hydroxynaphthalen-1-yl)quinazolin-2-yl)amino)-N,N-dimethylpropanamide], for which the IC50 in assay [1] (KRAS G12D) and in assay [2] was 10 to 100 µM each time.

On to `CN(C)C(=O)CNc1nc(N2C[C@H]3CC[C@@H](C2)N3)c2ccc(-c3cc(O)cc4ccccc34)cc2n1` [P-0059, 2-((4-((1R,5S)-3,8-diazabicyclo[3.2.1]octan-3-yl)-7-(3-hydroxynaphthalen-1-yl)quinazolin-2-yl)amino)-N,N-dimethylacetamide], for which the IC50 in assay [1] (KRAS G12D) and in assay [2] was 10 to 100 µM in each case.

Regarding `CNCCNc1nc(N2C[C@H]3CC[C@@H](C2)N3)c2ccc(-c3cc(O)cc4ccccc34)cc2n1` [P-0061, 4-(4-((1R,5S)-3,8-diazabicyclo[3.2.1]octan-3-yl)-2-((2-(methylamino)ethyl)amino)quinazo-lin-7-yl)naphthalen-2-ol], the concentration for half-maximal inhibition (IC50) in assay [1] (KRAS G12D) fell in the range of 0.0001 to 10 µM; in assay [2] it was 100 to 1000 µM.

As for `CC(CN)Oc1nc(N2C[C@H]3CC[C@@H](C2)N3)c2ccc(-c3cc(O)cc4ccccc34)cc2n1` (stereo partly drawn) [P-0062, 4-(2-((1-aminopropan-2-yl)oxy)-4-((1R,5S)-3,8-diazabicyclo[3.2.1]octan-3-yl)quinazolin-7-yl)naphthalen-2-ol], the results for the IC50 in assay [1] (KRAS G12D) and in assay [2] were 0.0001 to 10 µM and 10 to 100 µM, respectively.

Take `CN1CCC[C@H]1COc1nc(N2C[C@H]3CC[C@@H](C2)O3)c2ccc(-c3cc(O)cc4ccccc34)c(F)c2n1` [P-0114, 4-(4-((1R,5S)-8-oxa-3-azabicyclo[3.2.1]octan-3-yl)-8-fluoro-2-(((S)-1-methylpyrrolidin-2-yl)methoxy)quinazolin-7-yl)naphthalen-2-ol]: the half-inhibitory concentration (IC50) in assay [1] (KRAS G12D) and in assay [2] was 0.0001 to 10 µM each time.

With `CCc1cccc2[nH]cc(-c3ncc4c(N5C[C@H]6CC[C@@H](C5)N6)nc(OC[C@@]56CCCN5C[C@H](F)C6)nc4c3F)c12` [P-0505, 4-((1R,5S)-3,8-diazabicyclo[3.2.1]octan-3-yl)-7-(4-ethyl-1H-indol-3-yl)-8-fluoro-2-(((2R,7aS)-2-fluorotetrahydro-1H-pyrrolizin-7a(5H)-yl)methoxy)pyrido[4,3-d]pyrimidine], the IC50 in assay [1] (KRAS G12D) and in assay [2] was 0.0001 to 10 µM in each case.

For the molecule `Oc1cc(-c2ccc3c(N4C[C@H]5CC[C@@H](C4)N5)nc(N4CC(O)(C5CC5)C4)nc3c2F)c2ccccc2c1` [P-0636, 1-(4-((1R,5S)-3,8-diazabicyclo[3.2.1]octan-3-yl)-8-fluoro-7-(3-hydroxynaphthalen-1-yl)quinazolin-2-yl)-3-cyclopropylazetidin-3-ol], the 50% inhibitory concentration (IC50) in assay [1] (KRAS G12D) and in assay [2] was 0.0001 to 10 µM throughout.
